Values quoted from earlier work in patent US9493497B2, “Carbamate glycolipid and use thereof” (RIKEN, priority 2012, dated 2016).
Values belong to the molecule of their own block, whether it stands above or below them.

Legend:
[1] = not given; remark: listed apart in the source

solubility in DMSO: improved solubility in DMSO
SMILES: CCCCCCCC/C=C\CCCCCCCCCCCCCC(=O)N[C@@H](CO[C@H]1OC(CNC(C)=O)[C@H](O)[C@H](O)C1O)[C@H](O)[C@H](O)CCCCCCCCCCCCCC (stereo partly shown) [PBS-57]

SMILES: CCCCCCCCCCCCCCCCCCCCCCCCCC(=O)N[C@@H](CO[C@H]1OC(CO)[C@H](O)C(O)C1O)[C@H](O)[C@H](O)CCCCCCCCCCCCCC (stereo partly shown) [KRN7000]
anti-tumor activity (tumor): extremely strong anti-tumor activity

solubility in water [1]: low solubility in water
SMILES: CCCCCCCCCCCCCCCCCCCCCCCCCC(=O)N[C@@H](CO[C@H]1O[C@H](COC)[C@H](O)[C@H](O)[C@H]1O)[C@H](O)[C@H](O)CCCCCCCCCCCCCC [RCAI-61]
NKT cell activation / IFN-γ production induction (NKT cells): induces production of IFN-γ in large amounts

SMILES: CCCCCCCCCCCCCCCCCCCCCCCCCC(=O)N[C@@H](CO[C@H]1CC(CO)[C@H](O)[C@H](O)C1O)[C@H](O)[C@H](O)CCCCCCCCCCCCCC (stereo partly shown) [RCAI-56]
NKT cell activation / IFN-γ production induction (NKT cells): strongly activates NKT cells and induces production of a large amount of IFN-γ

SMILES: CCCCCCCCCCCCCCCCCCCCCCCCCC(=O)N[C@@H](CC[C@H]1OC(CO)[C@H](O)C(O)C1O)[C@H](O)[C@H](O)CCCCCCCCCCCCCC (stereo partly drawn) [α-C-GalCer]
activation of NKT cells of mouse (NKT cells of mouse): strongly activates NKT cells of mouse and preferentially produces IFN-γ
cytokine production in human NKT cells (human NKT cells): scarcely induces cytokine production
